Source: US12016834B2, “Small molecule inhibitors of SLC25A1” (GEORGETOWN UNIVERSITY, priority 2017, dated 2024)

Tests used:
SLC25A1 = SLC25A1 (Homo sapiens, UniProt P53007); assay: Surface plasmon resonance (SPR) binding to recombinant purified SLC25A1; conditions: steady state, 1:1 binding model; human protein
Description: Surface Plasmon Resonance (SPR). SPR experiments were performed on a Biacore 4000 instrument at room temperature. The NTA sensorchip surface was activated by injecting 0.5 mM NiCl2 for 1 minute. Histidine-tagged recombinant purified SLC25A1 protein (0.07 mg/ml stock concentration) was used as the ligand to capture on the sensor surface. SLC25A1 was dissolved (1:50 dilution) in PBS-P (20 mM phosphate buffer (pH 7.4), 2.7 mM KCl, 137 mM NaCl and 0.05% surfactant P20) buffer and captured onto spots 2 and 4. SLC25A1 was captured to a level of ˜3000. PBS-P was used as the capture running buffer. Small molecules were used as analytes to flow over the ligand immobilized surface. Spot 3 of all flow cells were used as reference. The calculated theoretical Rmax was ˜30 RU based on a 1:1 interaction. The kinetics experiments were performed in the presence of HBS-P (10 mM HEPES (pH7.4), 150 mM NaCl, and 0.05% surfactant P20). The flow rate of all the solutions was maintained at 30 μL/min. The analyte concentrations were 0 μM, […], 6.25 μM, 12.5 μM, 25 μM, 50 μM, and 100 μM. Analyte concentrations showing signs of aggregation were excluded from the analysis. Data were analyzed by Biacore BiaEvaluation software for 1:1 steady state binding model.

H1299 cells = assay: Sphere forming / self-renewal assay; type: cell-based, human
Description: Growth of monolayers and sphere cultures. Tumor cell lines were grown as monolayers in complete Dulbecco's Modified Eagle's Media (DMEM, Gibco; supplemented with 10% fetal bovine serum and 1% of 5,000 units/mL of penicillin-streptomycin (pen-strep), Gibco). To generate spheroids, cells were grown in Falcon bacteriological petri dishes coated with 2% poly(2-hydroxyethyl methacrylate) dissolved in 100% ethanol. The growth media was DMEM/F12 (Gibco) supplemented with 20 ng/mL of epidermal growth factor (EGF), 5 ng/mL of fibroblast growth factor, 0.375% 100× N2 supplements (Gibco), and 1% pen-strep. Monolayer cells were dissociated using 0.25% trypsin-edta (Gibco), whereas spheroid cultures were dissociated using StemPro Accutase (Gibco). Patient derived cell lines were grown as described below in the primary lung cultures section.
Self-renewal assays. Tumor cells cultured as spheroids were dissociated and diluted in 2× sphere media containing 1% methyl cellulose, which was previously dissolved in cold DMEM/F12 media. Either 200, 500, or 1000 cells were then plated in each 96 well and were incubated in the presence or absence of drugs, as indicated. The spheres were allowed to form for a period of a week to ten days, at which point they were counted. Six biological replicates were used for quantification of the results.

MP2 cells = assay: Seahorse OCR and ATP in patient-derived cells; type: cell-based, human
Description: (§1) Primary lung cancer cultures and GMSC. Surgical samples were minced and digested with dispase (50 U/ml) in DMEM media containing 5% serum for 1 hour. Pleural effusions were centrifuged, washed once in PBS, and then plated. All primary cultures were initially grown on 6-well plates pre-coated with 2% Geltrex (Life Technologies; Carlsbad, CA) and 1% Maxgel (Sigma Aldrich). Maxgel is a humanized matrix, native and non-denatured. The inclusion of Maxgel in the system enhanced the initial attachment of primary tumor cells, partially because Maxgel provides a more natural ECM conformational substrate. The day after plating, the media containing unattached cells was typically transferred to a fresh plate, in most of cases generating new attached cultures. The media (Stem Cell Media) is the DMEM/F12 (Thermo-Fisher #11320-033 basic media) supplemented with the following components: Insulin-Transferrin-Sodium selenite (ITS; 1:1000; Sigma #11884); glutamine (Thermo-Fisher) to 4 mM final concentration; sodium pyruvate (Thermo-Fisher) to 2 mM final concentration; rock inhibitor (Y-27632) 10 micrograms/mL; 2-5% Knock Out Serum Replacement (KNOSR, Thermo-Fisher #10828-028); 0.5% ALBUMAX-(Lipid enriched BSA; Thermo-Fisher #11020-021); N2 Supplement (Thermo-Fisher) 1:250; EGF (5 ng/ml; Peprotech); hFGF (20 ng/ml; Bechman); and IGF-1 (Peprotech; 10-20 ng/ml).
(§2) Seahorse extracellular flux analyzer experiments. Cells derived from spheres or monolayer cultures were dissociated and plated overnight at 12,000 cells/well in DMEM with 10% FBS, 5 mM glucose, 1 mM pyruvate, 2 mM glutamine.
(§3) For the mitochondrial stress test, the media was replaced with DMEM without FBS or bicarbonate, containing 5 mM glucose, 1 mM pyruvate, 2 mM glutamine and placed in a CO2 free incubator at 37° C. for 1 hour, and then transferred to the Xf96 extracellular flux analyzer (Agilent; Santa Clara, CA). The program consisted of 3 measurements of OCR/ECAR before the injection of each drug: oligomycin (0.5 μM final concentration), FCCP (2 μM) and rotenone/antimycin (0.5 μM of each). For the glycolysis stress test, cells were plated overnight as above, and the media was washed twice the following day with DMEM without FBS, bicarbonate, glucose, glutamine or pyruvate, and incubated in this media in a CO2 free incubator with/without drug treatments at 37° C. for 4 hours. There were 3 measurements of OCR/ECAR before each injection: glucose (10 mM final concentration), oligomycin (0.5 […] (50 mM). For the analysis of glutamine oxidation, the protocol was the same as the glucose stress test, but with glutamine being the only compound injected (final concentration 4 mM) and OCR/ECAR measured for 60 minutes. When spheres were analyzed, they were dissociated with StemPro® Accutase® (Thermo Scientific; Waltham, MA) and plated under the same conditions as above as for the monolayers the day before the assay (H1299 spheres), or in stem cell media (See Stem Cell Media) with the wells coated in 15 μL of 2% geltrex diluted in DMEM:F12 (Thermo Scientific). The results were normalized to cell number.

MP1 cells = assay: Seahorse OCR and ATP in patient-derived cells; type: cell-based, human; conditions: GMSC versus monolayer; treatment 3 hours
Description: as §1, §2, §3

Sequence of SLC25A1 (P53007 14-311): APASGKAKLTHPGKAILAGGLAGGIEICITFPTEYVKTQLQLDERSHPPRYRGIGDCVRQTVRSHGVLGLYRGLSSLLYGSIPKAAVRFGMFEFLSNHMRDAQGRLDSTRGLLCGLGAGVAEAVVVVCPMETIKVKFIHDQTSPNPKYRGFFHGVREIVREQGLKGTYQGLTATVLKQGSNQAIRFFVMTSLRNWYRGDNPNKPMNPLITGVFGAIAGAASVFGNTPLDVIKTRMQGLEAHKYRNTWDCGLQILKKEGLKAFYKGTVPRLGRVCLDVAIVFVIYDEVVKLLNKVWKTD

O=C(O)c1ccccc1NS(=O)(=O)c1ccc(Cl)c([N+](=O)[O-])c1 [CTPI-2]
Kd (SLC25A1): 5.3 µM
sphere forming capacity, compared with CTPI-1 (H1299 cells; FIG. 2E): inhibited sphere forming capacity more efficiently than CTPI-1
activity in spheres versus 2D/monolayer cultures (H1299 cells; sphere forming assay compared with monolayer): significantly more prominent in spheres than in 2D cultures
increase of oxygen consumption rates, basal, SRC and mitochondrial ATP output in GMSC cells (MP2 cells; GMSC versus monolayer, treatment 3 hours): reverted by CTPI-2 more prominently in CSCs than in monolayer cultures
basal respiration, SRC and ATP production in cisplatin treated cells (MP2 cells; monolayer cells exposed to cisplatin (FIG. 15A)): blocked basal respiration, SRC and ATP production
increase of oxygen consumption rates, basal, SRC and mitochondrial ATP output in GMSC cells (MP1 cells): reverted by CTPI-2 more prominently in CSCs than in monolayer cultures
